Measured values taken from patent US12643893B2, “Heteroaryl-pyridinium compound and redox flow battery comprising the same” (Korea Advanced Institute of Science and Technology, priority 2021, dated 2026).
Like-named read-outs stand apart in the source and are kept apart here.

Tests used:
[1] = Cyclic voltammetry (CV) in three-electrode cells; type: physicochemical; conditions: for Formal potential (E^o′): CV, 4 mM in 0.1 M TBATFSI/MeCN
Procedure: All electrochemical examinations were carried out using a Biologic VMP3 electrochemical workstation in an Ar-filled glove box (MOTek, negligible O2 and H2O, tested by the ketyl solution).
Cyclic voltammetry (CV) was conducted in three-electrode cells comprised of glassy carbon (GC; diameter (d)=3 mm) as the working electrode (WE), a platinum wire as the counter electrode (CE), and a leak-free Ag/AgCl as the reference electrode (RE). The GC electrodes were polished using alumina slurry before testing (ALS Co., Ltd).
After CV analysis, ferrocene (Fc, ferrocene, 98%, Sigma-Aldrich) was added to the cell to measure its redox potential, and the measured sample potential was converted to the Fc/Fc^+.

[2] = Radical stability, UV-Vis time-dependent concentration decay; type: physicochemical; conditions: for time-dependent concentration decay of the radical: in 0.5 M TBATFSI/MeCN
From the text: FIG. 10—Radical stability of TMAP-BTP^·+ and BTP^·. (a-b) UV-Vis spectra of (a) TMAP-BTP^·+ and (b) BTP^· in 0.5 M TBATFSI/MeCN. (c-d) Calculated time-dependent concentration decay of (c) TMAP-BTP^·+ (0.22%/day) and (d) BTP (0.63%/day). Better stability of TMAP-BTP^·+ than BTP^· is presumably attributed to the cationic TMAP groups, which repel the redox molecules and prevent chemical reactions.

[3] = expected from the permeability
[4] = Rotating disk electrode LSV, diffusion coefficient (Levich equation); type: physicochemical; conditions: 0.1 M TBATFSI/MeCN
Procedure: To measure diffusion coefficient (D), rotating disk electrode (RDE; ALS Co., Ltd) measurements were conducted with the same three-electrode cells. […] Limited mass-transport provides a current plateau (iL) of redox processes, which is linearly proportional to the square root of the rotating rates (ω^1/2). The diffusion coefficient (D) was calculated by plotting IL as a function of ω^1/2 and through the Levich equation (equation S1). iL=0.620nFAD^2/3ω^1/2η^−1/6Co (equation S1)
where IL is the limiting current (A cm^−2), n is the number of electrons transferred during the redox reaction, F is the Faraday's constant (96485 C mol^−1), A is the area of the electrode (0.0707 cm^2), D is the diffusion coefficient (cm^2 […]), ω is the angular rotation rate (rad s^−1), η is the kinematic viscosity (0.00442 cm^2 s^−1, referred to 0.1 M TBAPF6/MeCN), and Co is the concentration of the sample chemical.

[5] = Electron-transfer rate from CV curves (Nicholson method); type: physicochemical; conditions: 0.1 M TBATFSI/MeCN
Procedure: The electron-transfer rate (k^0) was calculated from CV curves and using the Nicholson method(equation S2).
where k^o is the electron-transfer constant (cm/s), D is the diffusion coefficient estimated from the above RDE studies, R is the gas constant (8.314 J K^−1 mol^−1), T is the temperature (298 K), v is the scan rate of the CVs (mV s^−1).
The Ψ value was obtained by Kingler and Kochi relation (equation S3).
where ΔEp is the peak-to-peak potential for the corresponding reduction or oxidation event.

| Structure (SMILES) | cyclability in the CV profile ([1]; 100 CV cycles, FIGS. 6 and 7) | time-dependent concentration decay of the radical [2] | time required for 10% decay associated with the crossover [3] | time required for 10% decay associated with the crossover ([3]; listed as BTP^·) | Formal potential (E^o′) ([1]; first redox event (single event for BTMAP-Fc)) | peak-to-peak potential difference (ΔEp) ([1]; maintained for 100 CV cycles) | anodic-to-cathodic peak current ratio (Ipa/Ipc) ([1]; preserved during 100 CV cycles) | Formal potential (E^o′) ([1]; second redox event) | diffusion coefficient (D) [4] | electron-transfer constant (k^o) [5] | time the reduced form remained stable in the electrolyte solution ([2]; electrolyte solution) | time required for 10% decay associated with the crossover ([3]; listed as TMAP-BTP^·+) |
| --- | --- | --- | --- | --- | --- | --- | --- | --- | --- | --- | --- | --- |
| C[n+]1ccc(-c2nc3ccccc3s2)cc1 [BTP^+] | excellent cyclability | 0.63 %/day | 0.047 year | 0.0065 year |  |  |  |  |  |  |  |  |
| C[N+](C)(C)CCC[n+]1ccc(-c2nc3ccccc3s2)cc1 [TMAP-BTP^2+] |  | 0.22 %/day | 0.37 year |  | −1.19 V vs. Fc/Fc^+ | 105 mV | close to unity | −1.87 V vs. Fc/Fc^+ | 1.91×10^−6 cm^2 s^−1 | ~0.1 cm/s | 4 days | 0.094 year |
